Assays:
Experiment in all cases: Bliss excess, mean over the matrix (fraction); higher = more synergy
SK-MEL-24 (Melanoma) = tested on: SK-MEL-24 (Melanoma)
How it was run: (§1)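 After 24 hours at 37°C and 5% CO2 in 1536-well plates, cells in DMEM/F12 or RPMI plus 10% FBS received two-drug dose matrices for 72 hours. Viability came from CellTiter-Glo 2.0 luminescence and was scaled as inhibition, anchored at 0 by vehicle wells and at 1 by blank wells. Combination Emax is taken as the second-highest inhibition in the matrix, and Bliss excess as the observed combination effect less EA + EB − EA·EB, with EA and EB the single-agent effects.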

[1] = tested on: TK (B-Cell Non-Hodgkin's Lymphoma)
How it was run: as §1

[2] = tested on: RS4-11 (B-Lymphoblastic Leukemia)
How it was run: as §1

[3] = tested on: SBC-3 (Small Cell Lung Carcinoma)
How it was run: as §1

[4] = tested on: MRK-nu-1 (Breast Carcinoma)
How it was run: as §1

[5] = tested on: HT-1197 (Bladder Carcinoma)
How it was run: as §1

[6] = tested on: NCI-H1648 (Lung Adenocarcinoma)
How it was run: as §1

[7] = tested on: KNS-62 (Squamous Cell Lung Carcinoma)
How it was run: as §1

[8] = tested on: SUP-HD1 (Hodgkin's Lymphoma)
How it was run: as §1

[9] = tested on: CAL-85-1 (Breast Carcinoma)
How it was run: as §1

[10] = tested on: COR-L105 (Lung Adenocarcinoma)
How it was run: as §1

[11] = tested on: NCI-H1975 (Lung Adenocarcinoma)
How it was run: as §1

[12] = tested on: C2BBe1 (Colorectal Carcinoma)
How it was run: as §1

DK-MG (Glioblastoma) = tested on: DK-MG (Glioblastoma)
How it was run: as §1

[13] = tested on: NCI-H2009 (Lung Adenocarcinoma)
How it was run: as §1

[14] = tested on: NCI-H2170 (Squamous Cell Lung Carcinoma)
How it was run: as §1

MG-63 (Osteosarcoma) = tested on: MG-63 (Osteosarcoma)
How it was run: as §1

[15] = tested on: SBC-5 (Small Cell Lung Carcinoma)
How it was run: as §1

[16] = tested on: BT-474 (Breast Carcinoma)
How it was run: as §1

[17] = tested on: L-363 (Plasma Cell Myeloma)
How it was run: as §1

Row | SMILES | Bliss excess (SK-MEL-24 (Melanoma)) | Bliss excess [1] | Bliss excess [2] | Bliss excess [3] | Bliss excess [4] | Bliss excess [5] | Bliss excess [6] | Bliss excess [7] | Bliss excess [8] | Bliss excess [9] | Bliss excess [10] | Bliss excess [11] | Bliss excess [12] | Bliss excess (DK-MG (Glioblastoma)) | Bliss excess [13] | Bliss excess [14] | Bliss excess (MG-63 (Osteosarcoma)) | Bliss excess [15] | Bliss excess [16] | Bliss excess [17]
1 | COc1cc2c(cc1OCCCCCOc1cc3c(cc1OC)C(=O)N1C=C(C)C[C@H]1C=N3)N=C[C@@H]1CC(C)=CN1C2=O [SG3199] + O=C(c1cc(Cc2n[nH]c(=O)c3ccccc23)ccc1F)N1CCN(C(=O)C2CC2)CC1 [Olaparib] (first compound max 0.001 µM, 7x7, partner max 10 µM) | -0.0576 | -0.0114 | 0.0338 | -0.0516 | -0.0642 | -0.028 | -0.0282 | -0.0464 | 0.1 | -0.0407 | -0.0371 | -0.0171 | -0.0188 | -0.0446 | -0.0297 | -0.009 | -0.0041 | -0.0193 | -0.0487 | -0.0123
2 | C[C@@H](c1ccc2nccn2c1)n1nnc2ncc(-c3cnn(C)c3)nc21 [Savolitinib] + Cc1c2c(nn1C)CSCc1cc(n(C)n1)CSc1cc(c3ccccc3c1)OCCCc1c(C(=O)O)n(C)c3c-2c(Cl)ccc13 [AZD5991] (first compound max 1 µM, 7x7, partner max 1 µM) | -0.0519 | -0.0262 | -0.0406 | -0.0321 | 0.0344 | -0.0356 | 0.0216 | -0.0471 | -0.05 | -0.0286 | -0.0086 | -0.0275 | -0.0455 | -0.0226 | -0.0063 | -0.0199 | 0.0065 | 0.0286 | -0.0595 | -0.0203
3 | C=CCn1c(=O)c2cnc(Nc3ccc(N4CCN(C)CC4)cc3)nc2n1-c1cccc(C(C)(C)O)n1 [AZD1775] + C1CN(CCC1(C(=O)N[C@@H](CCO)C2=CC=C(C=C2)Cl)N)C3=NC=NC4=C3C=CN4 [Capivasertib] (first compound max 3 µM, partner max 3 µM) | 0.0047 | 0.0183 | 0.0201 | -0.0786 | -0.0885 | -0.0488 | -0.0257 | -0.0128 | -0.0378 | -0.0528 | -0.0627 | -0.0668 | -0.077 | -0.0023 | -0.0011 | -0.0454 | -0.0484 | 0.0256 | 0.0145 | -0.0379
4 | Cc1nc(Nc2ncc(C(=O)Nc3c(C)cccc3Cl)s2)cc(N2CCN(CCO)CC2)n1 [Dasatinib] + CC(=O)Nc1cccc(-n2c(=O)n(C3CC3)c(=O)c3c(Nc4ccc(I)cc4F)n(C)c(=O)c(C)c32)c1 [Trametinib] (first compound max 2 µM, 7x7, partner max 1 µM) | 0.141 | -0.0386 | -0.0685 | 0.0453 | -0.0688 | -0.0524 | 0.0135 | -0.0815 | -0.0782 | 0.0959 | 0.0567 | 0.0302 | 0.0323 | -0.0685 | 0.0589 | -0.0593 | -0.0066 | 0.025 | -0.0493 | -0.0221
5 | CN(CCO)CC[C@H](CSc1ccccc1)Nc1ccc(S(=O)(=O)NC(=O)c2ccc(N3CCC([C@@H](O)c4ccccc4-c4ccc(Cl)cc4)CC3)cc2)cc1S(=O)(=O)C(F)(F)F [AZD4320] + Cc1cc2ncnn2cc1Nc1ncc2c(n1)n(C1CCOCC1)c(=O)n2C [AZD7648] (first compound max 1 µM, 7x7, partner max 10 µM) | -0.0429 | -0.0018 | -0.0148 | -0.0767 | 0.0501 | -0.0497 | -0.0264 | -0.0628 | 0.0039 | -0.0118 | -0.0146 | -0.0283 | -0.0403 | -0.0591 | -0.0437 | -0.006 | -0.0463 | -0.032 | -0.0628 | 0.0181
6 | Cc1cc2ncnn2cc1Nc1ncc2c(n1)n(C1CCOCC1)c(=O)n2C [AZD7648] + O=C(c1cc(Cc2n[nH]c(=O)c3ccccc23)ccc1F)N1CCN(C(=O)C2CC2)CC1 [Olaparib] (first compound max 10 µM, 7x7, partner max 10 µM) | -0.0533 | 0.0001 | -0.0831 | -0.0148 | -0.0615 | 0.0045 | -0.0549 | -0.0507 | 0.0862 | -0.057 | -0.034 | 0.0135 | -0.0402 | -0.0126 | -0.0372 | -0.0052 | 0.0014 | -0.034 | -0.0457 | 0.0266

— the supplement of paper PMC11061612
